# Measured values as given in US20020091082A1, “Methods of modulating symptoms of hypertension” (priority 2000, published 2002).
# Entries after “also recorded” stand apart in the source; their conditions may differ. Like-named read-outs stand apart in the source and are kept apart here.
# Assays:
# retinal VEGF mRNA = assay: Retinal VEGF mRNA in spontaneously hypertensive rats (multiplex RT-PCR); assay type: in vivo, rat; conditions: SHR rats; captopril 100 mg/kg/day or candesartan cilexetil 10 mg/kg/day in drinking water for one week
# Description: (§1) 12 week-old male spontaneously hypertensive rats (SHR) and weight-matched Wistar-Kyoto (WKY) control animals were used. Systolic and diastolic blood pressures were measured from each animal by tail cuff. Animals were treated with or without 100 mg/kg/day captopril or 10 mg/kg/day candesartan cilexetil for one week. Drugs were administered in drinking water. Blood measurements were repeated after therapy and the retinas individually isolated.
# (§2) RNA was isolated from individual retinas and RNA reverse transcribed at 42° C. using random hexamer primers. PCR amplification was carried out using a 55° C. annealing temperature. The samples were separated on a 6% nondenaturing polyacrylamide gel. The gel was dried and analyzed by PhosphorImager. Signal intensity was normalized using rat ribosomal phosphoprotein P0 (RRRPP0) as an internal standard.
# [1] = Blood pressure in spontaneously hypertensive rats (tail cuff); assay type: in vivo, rat; conditions: SHR rats, treatment for one week in drinking water
# Description: as §1
# retinal KDR mRNA = assay: Retinal KDR mRNA in spontaneously hypertensive rats (multiplex RT-PCR); assay type: in vivo, rat; conditions: SHR rats, captopril 100 mg/kg/day or candesartan cilexetil 10 mg/kg/day in drinking water for one week
# Description: To determine the effect of hypertension on KDR levels in vivo, KDR mRNA was quantified in hypertensive rats (SHR) as well as weight-matched controls (WKY). […] Captopril is an angiotensin converting enzyme (ACE) inhibitor. Candesartan Cilexetil is an angiotensin II antagonist.
# as §1, §2
# [2] = test system: bovine retinal endothelial cells (BRECs); assay: 3H-thymidine incorporation (mitogenesis) under cyclic stretch; assay type: cell-based
# Description: Cells can respond to VEGF by proliferation. A measure of proliferation is the rate of cell progression through mitosis. Cells transiting S phase will incorporate ^3H-thymidine.
# To determine if the effects of cyclic stretching on mitogenesis are mediated by VEGF signaling, cells were stretched while treated with a VEGF neutralizing antibody.
# (§3) Cells were seeded on 6-well flexible-bottom plates coated with bovine fibronectin and subjected to uniform radial and circumferential strain using a computercontrolled, vacuum stretch apparatus (Flexcer Cell Strain Unit; Flexcel Corp.) with cardiac profile at a frequency of 60 cpm.
# Confluent cells were placed in 1% calf serum for 24 hours and then subjected to 9%/60 cpm cyclic stretch for 24 hrs. During the last 12 hrs, VEGF (25 ng/ml final). VEGF neutralizing antibody (10 μg/ml was added 30 minutes prior to stretch onset. ^3H-thymidine (0.5 μCi/ml)was added during the last 6 hours.
# VEGF mRNA = assay: Stretch-induced VEGF mRNA expression in bovine retinal pericytes (Northern blot); assay type: cell-based; conditions: BRPC; for inhibition of stretch-induced VEGF mRNA expression: 9%/60 cpm cyclic stretch 3 hours, genistein 20 uM, adenovirus 1×10^8 pfu/ml; for inhibition of stretch-induced VEGF mRNA expression / effect on stretch-induced VEGF mRNA expression: LY294002 50 uM, wortmannin 100 nM; for effect on basal VEGF mRNA expression: unstretched; for effect on stretch-induced VEGF mRNA expression: 9%/60 cpm cyclic stretch, PD98059 20 uM, GF109203X 5 uM
# Description: To determine the mechanism by which stretch increased VEGF mRNA expression, inhibitors of MEK1 (PD98059, 20 uM), classical/novel PKC isoforms (GF109203X, 5 uM), tyrosine phosphorylation (genistein, 20 uM) and PI3 kinase (wortmannin, 100 nM and LY294002, 50 uM) were evaluated. In all experiments 9%/60 cpm cyclic stretch for 3 hours induced VEGF mRNA expression. Inhibition of ERK1/2 utilizing PD98059 had little effect on either basal or stretch-induce expression of VEGF. […] LY294002 and wortmannin inhibited stretched induced VEGF mRNA expression by 85±20% (p=0.039) and 96±25% (p=0.035), respectively.
# Cell culture: Primary cultures of bovine retinal pericytes (BRPC) were isolated by homogenization and a series of filtration steps. BRPC were cultured in DMEM containing 5.5 mM glucose and 20% FBS. The cells were maintained in 5% CO2 at 37 °C and media were changed every three days. Cells were characterized for their homogeneity by immunoreactivity with monoclonal antibody 3G5. Cells were plated at a density of 2×10^4 cells/cm2 and passaged when confluent. The media were changed every three days and only cells from passages 2-5 were used for experiments.
# (§4) Mechanical Stretch: For pericyte experiments, cells were plated on 6-well flexiblebottom culture plates coated with collagen (Flexcell Corp.,Mckeepsport, Pa.). After 2 days, media were changed to DMEM containing 1% calf serum and the cells incubated overnight. Cells were then subjected to uniform radial and circumferential strain in 5% CO2 at 37° C. using a computer-controlled, vacuum stretch apparatus (Flexcer Cell Strain Unit; Flexcel Corp.). A physiologic stretch frequency of 60 cpm and 3-20% prolongation of elastomer bottomed plates were used as previously described.
# RNA Extraction: RNA was extracted using the guanidinium thiocynate method. RNA purity was determined by the ratio of optical density (OD) measured at 260 & 280 nm and RNA quantity was estimated using OD measured at 260 nm.
# Northern Blot Analysis: Northern blot analysis was performed on 15 μg total RNA per lane after 1% agarose-2M formaldehyde gel electrophoresis and subsequent capillary transfer to Biodyne nylon membranes (Pall BioSupport, East Hills, N.Y.). Membranes underwent ultraviolet crosslinking using a UV Stratalinker 2400 (STRATAGENE, La Jolla, Calif.). Radioactive probes were generated using Amersham Megaprime labeling kits (Buckinghamshire, England) and 32PdCTP (NEN Life Science Products Inc., Boston, Mass.). Blots were pre-hybridized, hybridized and washed 4 times in 0.5×SSC, 5% SDS at 65 °C for 1 hour in a rotating hybridization oven (Robbins Scientific Corporation, Sunnyvale, Calif.). All signals were analyzed using a computing PhosphorImager with ImageQuant software analysis (Molecular Dynamics, Sunnyvale, Calif.). The signal for each sample was normalized by re-probing the same blot using 36B4 cDNA control probe.
# Akt = assay: Stretch-induced Akt phosphorylation in retinal pericytes; assay type: cell-based, bovine; conditions: cyclic stretch
# Description: The mechanism of stretch-induced Akt phosphorylation was evaluated using two PI3 kinase inhibitors (LY294002 and wortmannin), the MEK1 inhibitor PD98059 and the tyrosine kinase inhibitor genistein.
# as §4
# ERK1/2 and Akt phosphorylation: Cells were washed with cold PBS and lysed in 1X Laemmli buffer containing protease inhibitors as described above. Cell lysates were heated to 95 °C for 2 min and equal volume of lysates were subjected to SDS-PAGE under reducing conditions. The blots were incubated with anti-phosphospecific ERK1(p44)/ERK2(p42) or anti-phosphospecific Akt antibody (New England Biolabs, Beverly, Ma.). Lane loading differences were normalized by reblotting with non-phosphorylation-specific (total) anti ERK1 antibody (Santa Cruz Biological) or anti-total Akt antibody(New England Biolabs).
# KDR mRNA [3] = assay: Cyclic stretch-induced KDR mRNA expression; assay type: cell-based, bovine
# Description: (§5) Cyclic stretch induces KDR mRNA at least 2.2 fold. […] In contrast, angiotensin II which also induces KDR mRNA is blocked from doing so by candesartan cilexetil, an AT1 receptor antagonist. Thus, unlike Angiotensin II induced KDR expression, stretch induced KDR expression is not mediated through the AT1 receptor pathway.
# as §3
# KDR mRNA [4] = assay: Angiotensin II-induced KDR mRNA expression; assay type: cell-based
# Text: as §5
# ERK1/2 = assay: Stretch-induced ERK1/2 phosphorylation in retinal pericytes; assay type: cell-based, bovine
# Description: To determine what pathways were activated in retinal pericytes exposed to cardiac profile cyclic stretch, ERK phosphorylation, PI3 kinase activity and Akt phosphorylation were evaluated. Stretch induced a rapid increase in ERK 1/ 2 phosphorylation which was initially evident after 2 minutes, maximal at 5 min (ERK1=20-fold; ERK2=8.9-fold increase) and still maintained above baseline even after 60 min (ERK1=6.3-fold; ERK2=4.5-fold).
# Further confirmation that stretch-induced ERK1/2 activation was not involved in mediating stretch-induced VEGF expression was obtained by assaying ERK1/2 phosphorylation after exposure to the inhibitors described herein. The inhibitor response for stretch-induced ERK1/2 phosphorylation was opposite that observed for stretch-induced VEGF expression. Stretch-induced ERK1/2 phosphorylation was reduced by inhibition of MEK1 (85+10.8%, 88+7.1%, p<0.05) or classical/novel PKC (83+23%, 84+7.1% p<0.05) but relatively unaffected by inhibition of PI3 kinase or tyrosine phosphorylation. Adenovirus infection with dominant negative ERK, wild type active ERK63 or b-galactosidase control had no effect on stretch-induced VEGF expression.
# Mechanical Stretch: For pericyte experiments, cells were plated on 6-well flexiblebottom culture plates coated with collagen (Flexcell Corp.,Mckeepsport, Pa.). […]
compound,measurement,setting,value
C[C@H](CS)C(=O)N1CCC[C@H]1C(=O)O [captopril],effect on hypertension-induced elevation of retinal VEGF mRNA,retinal VEGF mRNA,blocked
same,effect on blood pressure,[1],normalization
same,effect on hypertension-induced elevation of retinal KDR mRNA,retinal KDR mRNA,blocked; also recorded: returned to baseline levels
VEGF,increase of VEGF-stimulated thymidine uptake by cyclic stretch,"[2]; BREC, cyclic stretch plus VEGF",2.6+/−0.2 fold
same,increase in 3H-thymidine uptake,[2]; cyclic stretching in combination with exogenous VEGF (25 ng/ml),257±21%
same,effect on 3H-thymidine uptake,"[2]; exogenous VEGF alone, no stretch",no significant effect
O=c1cc(N2CCOCC2)oc2c(-c3ccccc3)cccc12 [LY294002],inhibition of stretch-induced VEGF mRNA expression,VEGF mRNA,85±20%
same,inhibition of stretch-induced Akt phosphorylation,Akt,119+14%
CCOc1nc2cccc(C(=O)OC(C)OC(=O)OC3CCCCC3)c2n1Cc1ccc(-c2ccccc2-c2nn[nH]n2)cc1 (stereo not drawn) [candesartan cilexetil],effect on hypertension-induced elevation of retinal VEGF mRNA,retinal VEGF mRNA,blocked
same,effect on blood pressure,[1],normalization
same,effect on cyclic stretch-induced KDR mRNA expression,KDR mRNA [3],not significantly affected
same,effect on cyclic stretch-induced KDR mRNA expression,KDR mRNA [3]; listed as candesartan,not inhibited
same,effect on hypertension-induced elevation of retinal KDR mRNA,retinal KDR mRNA,blocked
same,effect on hypertension-induced elevation of retinal KDR mRNA,retinal KDR mRNA; listed as candesartan,returned to baseline levels
same,effect on angiotensin II-induced KDR mRNA,KDR mRNA [4]; angiotensin II stimulation,blocked
COC[C@H]1OC(=O)c2coc3c2[C@@]1(C)C1=C(C3=O)[C@@H]2CCC(=O)[C@@]2(C)C[C@H]1OC(C)=O [wortmannin],inhibition of stretch-induced VEGF mRNA expression,VEGF mRNA,96±25%
same,inhibition of stretch-induced Akt phosphorylation,Akt,119+18%
O=c1c(-c2ccc(O)cc2)coc2cc(O)cc(O)c12 [genistein],inhibition of stretch-induced VEGF mRNA expression,VEGF mRNA,87±12%
same,effect on basal VEGF mRNA expression,VEGF mRNA,without altering
same,effect on stretch-induced ERK1/2 phosphorylation,ERK1/2,lack of response
same,inhibition of stretch-induced Akt phosphorylation,Akt,84+14%
COc1cccc(-c2cc(=O)c3ccccc3o2)c1N [PD98059],effect on stretch-induced VEGF mRNA expression,VEGF mRNA,little effect; also recorded: not suppressed
same,effect on basal VEGF mRNA expression,VEGF mRNA,little effect
same,effect on stretch-induced Akt phosphorylation,Akt,little effect
CN(C)CCCn1cc(C2=C(c3c[nH]c4ccccc34)C(=O)NC2=O)c2ccccc21 [GF109203X],effect on stretch-induced VEGF mRNA expression,VEGF mRNA,did not alter
same,effect on stretch-induced ERK1/2 phosphorylation,ERK1/2,inhibition
"angiotensin II (DRVYIHPF; Angiotensin-2; UniProt P01019 25-32, looked up) [peptide that induces KDR mRNA through the AT1 receptor]",KDR mRNA induction,KDR mRNA [4],induces
